Source: BindingDB's records for doi:10.1021/acs.jmedchem.8b01436 (University of New South Wales, 2019)
pIC50: −log10 of the molar value. Peptide text beside a SMILES is read from it.

assay: Inhibition of (2S,8S,11S,14S)-2-(4-aminobutyl)-14-(3-guanidinopropyl)-8-(4-hydroxybenzyl)-11-(hydroxymethyl)-4,7,10,13,16,32-hexaoxo-36-((3aS,4S,6aR)-2-oxohexahydro-1H-thieno[3,4-d]imidazol-4-yl)-19,22,25,28-tetraoxa-3,6,9,12,15,31-hexaazahexatriacontan-1-oic acid binding to human Hsp72 SBD expressed in Escherichia coli BL21 (DE3) by Western

Row | pIC50 | SMILES
1 | 4.06 | N=C(N)NCCC[C@H](NC(=O)[C@H](CO)NC(=O)[C@H](Cc1ccc(O)cc1)NC(=O)CNC(=O)[C@@H](N)CCCCN)C(=O)O (H-KGYSR-OH)
2 | 3.61 | N=C(N)NCCC[C@H](NC(=O)[C@H](CO)NC(=O)[C@H](Cc1ccc(O)cc1)NC(=O)CNC(=O)[C@@H](N)CCCCN)C(=O)N[C@@H](CCCCN)C(=O)O (H-KGYSRK-OH)
3 | 4.15 | C[C@H](NC(=O)[C@H](CCCCN)NC(=O)[C@H](CCCNC(=N)N)NC(=O)[C@H](CO)NC(=O)[C@H](Cc1ccc(O)cc1)NC(=O)CNC(=O)[C@@H](N)CCCCN)C(=O)O (H-KGYSRKA-OH)
4 | 5.19 | C[C@H](NC(=O)[C@H](C)NC(=O)[C@H](CCCCN)NC(=O)[C@H](CCCNC(=N)N)NC(=O)[C@H](CO)NC(=O)[C@H](Cc1ccc(O)cc1)NC(=O)CNC(=O)[C@@H](N)CCCCN)C(=O)O (H-KGYSRKAA-OH)
